Measurements: patent US8927717B1, “Thiochromeno[2,3-c]quinolin-12-one derivatives, preparation method and application thereof” (National Defense Medical Center, priority 2014, dated 2015)
Like-named read-outs stand apart in the source and are kept apart here.

How the values were obtained:
[1] = biological target: T1, TOP I (Topoisomerase I) (Homo sapiens, UniProt P11387); assay: TOP I mediated supercoiled DNA relaxation assay; type: biochemical; settings: primary assay at 25 and/or 50 μM
T1 construct: purchased TopoGEN TG2005H
T1 sequence (P11387 1-765): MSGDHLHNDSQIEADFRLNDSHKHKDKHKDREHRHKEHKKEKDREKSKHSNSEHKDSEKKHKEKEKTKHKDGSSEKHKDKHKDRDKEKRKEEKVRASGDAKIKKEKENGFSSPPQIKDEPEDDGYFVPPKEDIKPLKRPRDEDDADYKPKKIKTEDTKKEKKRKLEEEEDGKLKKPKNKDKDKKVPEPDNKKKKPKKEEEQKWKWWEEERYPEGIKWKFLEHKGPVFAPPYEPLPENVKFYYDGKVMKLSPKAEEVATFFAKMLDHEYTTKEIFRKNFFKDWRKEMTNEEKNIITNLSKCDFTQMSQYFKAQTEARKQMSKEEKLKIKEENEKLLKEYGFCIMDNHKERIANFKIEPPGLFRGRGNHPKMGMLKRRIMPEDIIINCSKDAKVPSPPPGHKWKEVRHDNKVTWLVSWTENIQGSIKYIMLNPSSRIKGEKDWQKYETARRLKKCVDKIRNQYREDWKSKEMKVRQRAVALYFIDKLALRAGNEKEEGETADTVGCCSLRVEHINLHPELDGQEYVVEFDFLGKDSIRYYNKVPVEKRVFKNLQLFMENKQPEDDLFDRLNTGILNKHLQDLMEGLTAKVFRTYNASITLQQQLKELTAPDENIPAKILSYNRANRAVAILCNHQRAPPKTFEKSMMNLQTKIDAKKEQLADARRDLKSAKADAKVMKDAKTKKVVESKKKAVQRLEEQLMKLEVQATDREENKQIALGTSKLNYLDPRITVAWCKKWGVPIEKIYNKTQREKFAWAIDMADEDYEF
Description: According to the cell cytotoxicity, compounds 5, 7, 8, 16, 19, N2, N7, N8, N9, N14-N19, and N25 were also selected for primary TOP I and II activities assays at 25 and/or 50 μM (FIG. 2-4).

[2] = biological target: T1, TOP I (Topoisomerase I); assay: TOP I mediated supercoiled DNA relaxation assay; type: biochemical; settings: five different concentrations; TopoGEN TG2005H, TG-2000H-1
[3] = biological target: T2, TOP II (Topoisomerase II) (Homo sapiens, UniProt P11388); assay: TOP II-catalyzed relaxation of plasmid DNA assay; type: biochemical; settings: for IC50: five different concentrations, TopoGEN TG2005H, TG-2000H-1, read-out: IC50 value, TOP II mediated supercoiled DNA relaxation; for inhibitory effect in TOP II relaxation assay compared with VP-16: primary assay at 25 and/or 50 μM
T2 construct: purchased TopoGEN TG-2000H-1
T2 sequence (P11388 whole entry): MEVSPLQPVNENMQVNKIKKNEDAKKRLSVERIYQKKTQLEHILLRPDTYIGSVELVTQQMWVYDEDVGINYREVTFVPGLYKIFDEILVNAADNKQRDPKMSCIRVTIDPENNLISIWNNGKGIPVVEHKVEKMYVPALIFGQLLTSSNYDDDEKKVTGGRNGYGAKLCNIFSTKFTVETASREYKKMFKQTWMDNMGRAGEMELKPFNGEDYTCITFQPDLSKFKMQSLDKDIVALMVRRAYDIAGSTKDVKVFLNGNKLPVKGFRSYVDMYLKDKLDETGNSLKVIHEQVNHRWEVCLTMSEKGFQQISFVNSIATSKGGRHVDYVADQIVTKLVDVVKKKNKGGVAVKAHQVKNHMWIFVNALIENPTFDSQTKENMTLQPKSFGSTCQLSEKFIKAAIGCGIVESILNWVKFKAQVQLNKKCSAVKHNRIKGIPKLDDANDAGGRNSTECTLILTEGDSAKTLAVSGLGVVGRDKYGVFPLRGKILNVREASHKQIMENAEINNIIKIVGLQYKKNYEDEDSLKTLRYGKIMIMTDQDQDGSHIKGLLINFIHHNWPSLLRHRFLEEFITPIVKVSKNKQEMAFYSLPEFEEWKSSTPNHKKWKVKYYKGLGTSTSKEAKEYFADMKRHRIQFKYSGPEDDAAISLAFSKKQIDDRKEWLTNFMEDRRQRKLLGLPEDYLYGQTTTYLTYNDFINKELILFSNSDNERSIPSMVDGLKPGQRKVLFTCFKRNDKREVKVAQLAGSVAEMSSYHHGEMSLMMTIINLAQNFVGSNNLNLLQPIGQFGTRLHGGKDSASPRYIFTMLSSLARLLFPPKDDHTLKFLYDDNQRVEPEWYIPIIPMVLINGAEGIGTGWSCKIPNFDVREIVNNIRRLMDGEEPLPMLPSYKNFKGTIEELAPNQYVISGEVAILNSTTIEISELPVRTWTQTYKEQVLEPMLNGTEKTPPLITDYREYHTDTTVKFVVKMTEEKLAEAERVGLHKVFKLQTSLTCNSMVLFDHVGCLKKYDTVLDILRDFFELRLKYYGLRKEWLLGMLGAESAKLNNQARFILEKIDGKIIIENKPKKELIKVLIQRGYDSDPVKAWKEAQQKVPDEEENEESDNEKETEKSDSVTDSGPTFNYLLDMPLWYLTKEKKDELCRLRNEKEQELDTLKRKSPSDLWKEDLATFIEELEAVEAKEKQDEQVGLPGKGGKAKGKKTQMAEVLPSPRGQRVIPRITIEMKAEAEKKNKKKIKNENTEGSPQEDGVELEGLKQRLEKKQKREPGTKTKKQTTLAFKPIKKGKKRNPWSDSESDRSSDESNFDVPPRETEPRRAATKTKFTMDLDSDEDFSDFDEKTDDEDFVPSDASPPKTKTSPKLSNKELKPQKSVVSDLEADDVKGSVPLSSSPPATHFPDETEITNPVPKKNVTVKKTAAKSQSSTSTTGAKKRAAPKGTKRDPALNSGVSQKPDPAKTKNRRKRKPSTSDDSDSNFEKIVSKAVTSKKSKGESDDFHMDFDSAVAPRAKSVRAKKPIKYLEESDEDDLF
Description: We also performed TOP II-catalyzed relaxation of plasmid DNA assays (FIG. 5-7) to evaluate if compounds could inhibit TOP II. […] The IC50 value of compounds 7, N7, N8, N14, N15, N18, and N19 were about 10, 10, 1, 10, 5, 1, and 1 μM, respectively (detect by TopoGEN TG2005H, TG-2000H-1).

[4] = test system: PC-3 cell line; assay: MTT assay for cell cytotoxicity; type: cell-based, human; settings: PC-3 cells, 72 h, at least three independent experiments, read-out: MTT assay (IC50 ± SD) PC-3
Description: (§1) All of synthesis compounds were evaluated cell cytotoxicity by using MTT colorimetric assay on PC-3 and DU-145 cell lines. DU-145 and PC-3 are human hormone-refractory (androgen-independent) prostatic cancer cell lines from American Type Culture Collection (HTB-81™, ATCC, Rockville, Md.)^125 and Bioresource Collection and Research Center (60122, BCRC, Taiwan)^126, respectively. Two of the “classical” cell lines were cultivated in RPMI-1640 medium supplemented with 5% fetal bovine serum (v/v), 100 U/mL penicillin, and […] streptomycin. Approximately 2×10^3 cells were seeded into each well of a 96-well plate and incubated in 5% CO2 at 37° C. for 24 h. To evaluate the in vitro cytotoxicity, all the synthetic compounds were dissolved in DMSO, prepared immediately before the experiments and diluted into the complete medium before being added to each well of a 96-well plate. Each compound was then added to the culture medium for designated various concentrations (0.15, 0.5, 1.5, 5, 15 μM). After 72 h, an amount of 100 μL of MTT (1 mg/mL) was added to each well, and the samples were incubated at 37° C. for 4 h. After removing the MTT solution, 100 μL of DMSO was added to each well and incubated at 37° C. for another 20 mins. The absorbency at 560 nm was measured by using an ELISA reader.
(§2) Results are expressed as mean values of at least three independent experiments. The IC50 values of testing compounds were described in Table 1.

[5] = test system: DU-145 cell line; assay: MTT assay for cell cytotoxicity; type: cell-based, human; settings: DU-145 cells; 72 h; at least three independent experiments; read-out: MTT assay (IC50 ± SD) DU-145
Description: as §1, §2

| melting point [°C] | inhibitory effect in TOP I activity assay compared with CPT [1] | IC50 [2] [µM] | IC50 [3] [µM] | SMILES | inhibitory effect in TOP II relaxation assay compared with VP-16 [3] | IC50 [4] [µM] | IC50 [5] [µM] | IC50 ([4]; Homo sapiens) [µM] |
| --- | --- | --- | --- | --- | --- | --- | --- | --- |
| 211 to 213 | more potent inhibitory effects than CPT | ~10 | ~10 | O=c1c2cc(Cl)ccc2sc2c(N3CCNCC3)nc3ccccc3c12 [Compound 7, 10-Chloro-6-(piperazin-1-yl)-12H-thiochromeno[2,3-c]quinolin-12-one] | more potent inhibitory effects than the positive agent VP-16 | – | – | – |
| – | – | – | – | O=c1c2cc(Cl)ccc2sc2c(NCCCO)nc3ccccc3c12 [Compound N10, 10-Chloro-6-(3-propanolamino)-12H-thiochromeno[2,3-c]quinolin-12-one] | – | 6.31 ± 4.11 | 5.94 ± 2.03 | – |
| – | – | – | – | O=c1c2cc(Cl)ccc2sc2c(NCCCCCO)nc3ccccc3c12 [Compound N11, 10-Chloro-6-(5-pentanolamino)-12H-thiochromeno[2,3-c]quinolin-12-one] | – | 8.38 ± 3.39 | 4.95 ± 0.58 | – |
| 141 to 143 | more potent inhibitory effects than CPT | ~5 | ~5 | O=c1c2cc(Cl)ccc2sc2c(NCCNCCO)nc3ccccc3c12 [Compound N15, 10-Chloro-6-((2-((2-hydroxyethyl)amino)ethyl)amino)-12H-thiochromeno[2,3-c]quinolin-12-one] | more potent inhibitory effects than the positive agent VP-16 | – | – | – |
| 142 to 143 | more potent inhibitory effects than CPT | ~25 | ~1 | CCN(CC)CCCNc1nc2ccccc2c2c(=O)c3cc(Cl)ccc3sc12 [Compound N18, 10-Chloro-6-((3-(diethylamino)propyl)amino)-12H-thiochromeno[2,3-c]quinolin-12-one] | more potent inhibitory effects than the positive agent VP-16 | – | – | – |
| – | – | – | – | Nc1ccc(CCNc2nc3ccccc3c3c(=O)c4cc(Cl)ccc4sc23)cc1 [Compound N32, 6-((4-Aminophenethyl)amino)-10-chloro-12H-thiochromeno[2,3c]quinolin-12-one] | – | 10.1 ± 0.94 | 13.6 ± 1.39 | – |
| – | – | – | – | COc1cc([C@@H]2c3cc4c(cc3[C@@H](O[C@@H]3O[C@@H]5CO[C@@H](C)O[C@H]5[C@H](O)[C@H]3O)[C@H]3COC(=O)[C@H]23)OCO4)cc(OC)c1O [Etoposide (VP-16), Etoposide, reference compound] | – | – | – | 4.33 ± 0.86 |
